Results taken from patent US8222020B2, “Biologically pure strain of Lactobacillus fermentum, strain Ess-1” (SCA Hygiene Products AB, priority 2006, dated 2012).

Tested on: C. albicans
Experiment: Screening II: Candida growth in Lactobacillus cell-free filtrate (LCF), visual turbidity scale 5 to 0
Type: cell-based, Candida albicans
Conditions: acids 50 mM, salts 0.3%; 20 hours at 37° C.
Excerpt: Clinical isolates of Candida albicans and Candida glabrata were used as test strains. These were isolated from the vagina of women with vaginal candidiasis and from healthy females. Suspensions of lactobacilli grown in dMRSs broth (MRS broth without addition of sodium acetate) were centrifuged and sterile filtered. The filtrate is henceforth called Lactobacillus Cell-free Filtrate, LCF. A specified volume was transferred to wells of a micro titre plate and was let to air dry and thereafter resuspended in sterile distilled water to a concentration three times higher and transferred to 96-wells micro titre plates. Candida was added to all vials (three isolates of C. albicans and C. glabrata, respectively, were used). The inhibition was evaluated by visual observation of turbidity and graduated by two persons using a template on a scale from five to zero. […] The plates were incubated for 20 hours at 37° C. and the candida growth in the vials was visually evaluated and graduated from five to zero. […] The inhibition was evaluated by visual observation of turbidity and graduated by two persons using a template on a scale from five to zero. […] The plates were incubated for 20 hours at 37° C. and the candida growth in the wells was visually evaluated and graduated from five to zero.

Structure (SMILES)	effect of acids and acid salts on the growth of C. albicans
CCC(=O)[O-].[Na+] [Sodium propionate]	most extended effect
CCC(=O)O [propionic acid]	most extended effect
